Values of other authors, collected in US6365180B1, “Oral liquid compositions” (priority 1998, dated 2002).

Settings: enteric coated tablet versus aqueous solution

For `O=C(O)Cc1ccccc1Nc1c(Cl)cccc1Cl` [sodium diclofenac], the oral bioavailability is given as “more orally bioavailable from an enteric coated tablet than from an aqueous solution”.
